Calls of active or inactive are those of the source. No rule for the calls is given here.
System: rodent lifetime carcinogenesis bioassay, tumor incidence TD50
Test: chronic cancer bioassays in animals – CPDB, compiled studies (AID 1745844)

SMILES: COc1cc(-c2ccc(N)c(OC)c2)ccc1N
- carcinogen call (mouse, strain BALB/cStCrlfC3Hf/Nctr, females, in drinking water, site: Harderian gland, lesion: adenoma, dosed 78 weeks, study length 78 weeks): negative (inactive)
- carcinogen call (mouse, strain BALB/cStCrlfC3Hf/Nctr, females, in drinking water, site: Harderian gland, lesion: adenoma, dosed 112 weeks, study length 112 weeks): negative (inactive)
- carcinogen call (mouse, strain BALB/cStCrlfC3Hf/Nctr, females, in drinking water, site: Harderian gland, lesion: carcinoma, dosed 78 weeks, study length 78 weeks): negative (inactive)
- TD50 (mouse, strain BALB/cStCrlfC3Hf/Nctr, males, in drinking water, site: Harderian gland, lesion: adenoma, dosed 78 weeks, study length 78 weeks): 3560 mg/kg/day (inactive)
- carcinogen call (mouse, strain BALB/cStCrlfC3Hf/Nctr, males, in drinking water, site: Harderian gland, lesion: adenoma, dosed 112 weeks, study length 112 weeks): negative (inactive)
- TD50 (mouse, strain ICR/Jcl, males, in feed, site: liver, lesion: hepatoma, dosed 65 weeks, study length 65 weeks): 73.8 mg/kg/day
- TD50 (rat, strain Fischer 344, females, in drinking water, site: Zymbal's gland, lesion: adenoma + carcinoma + carcinoma, bilateral, dosed 91 weeks, study length 93 weeks): 6.74 mg/kg/day
- TD50 (rat, strain Fischer 344, females, in drinking water, site: Zymbal's gland, lesion: adenoma, dosed 91 weeks, study length 93 weeks): 27.5 mg/kg/day
- TD50 (rat, strain Fischer 344, females, in drinking water, site: Zymbal's gland, lesion: carcinoma + carcinoma, bilateral, dosed 91 weeks, study length 93 weeks): 8.41 mg/kg/day
- TD50 (rat, strain Fischer 344, females, in drinking water, site: all sites, lesion: mononuclear-cell leukemia, dosed 91 weeks, study length 93 weeks): 6.71 mg/kg/day
- TD50 (rat, strain Fischer 344, females, in drinking water, site: any site (literature study), lesion: several types, types named in the paper, dosed 91 weeks, study length 93 weeks): 1.09 mg/kg/day
- TD50 (rat, strain Fischer 344, females, in drinking water, site: cervix uteri + uterus, lesion: carcinoma + papillary adenoma + adenoma, dosed 91 weeks, study length 93 weeks): 14 mg/kg/day
- TD50 (rat, strain Fischer 344, females, in drinking water, site: cervix uteri + uterus, lesion: papillary adenoma + adenoma, dosed 91 weeks, study length 93 weeks): 15.8 mg/kg/day
- TD50 (rat, strain Fischer 344, females, in drinking water, site: clitoral gland + cervix uteri + colon, descending + liver + mammary gland + palate + pharynx + rectum + skin + tongue + uterus + Zymbal's glan, lesion: adenoma + adenoma, bilateral + carcinoma + carcinoma, bilateral + papillary adenoma + adenocarcinoma + adenomatous polyp + hepatocellu, dosed 91 weeks, study length 93 weeks): 1.19 mg/kg/day
- TD50 (rat, strain Fischer 344, females, in drinking water, site: clitoral gland, lesion: adenoma + adenoma, bilateral + carcinoma + carcinoma, bilateral, dosed 91 weeks, study length 93 weeks): 1.6 mg/kg/day
- TD50 (rat, strain Fischer 344, females, in drinking water, site: clitoral gland, lesion: adenoma + adenoma, bilateral, dosed 91 weeks, study length 93 weeks): 3.84 mg/kg/day
- TD50 (rat, strain Fischer 344, females, in drinking water, site: clitoral gland, lesion: carcinoma + carcinoma, bilateral, dosed 91 weeks, study length 93 weeks): 2.62 mg/kg/day
- TD50 (rat, strain Fischer 344, females, in drinking water, site: colon, descending + rectum, lesion: adenocarcinoma + adenomatous polyp, dosed 91 weeks, study length 93 weeks): 44.3 mg/kg/day
- TD50 (rat, strain Fischer 344, females, in drinking water, site: liver, lesion: hepatocellular adenoma + hepatocellular carcinoma + neoplastic nodule, dosed 91 weeks, study length 93 weeks): 33.3 mg/kg/day
- TD50 (rat, strain Fischer 344, females, in drinking water, site: liver, lesion: hepatocellular carcinoma + neoplastic nodule, dosed 91 weeks, study length 93 weeks): 33.3 mg/kg/day
- TD50 (rat, strain Fischer 344, females, in drinking water, site: mammary gland, lesion: adenocarcinoma + adenoma + fibroadenoma, dosed 91 weeks, study length 93 weeks): 3.24 mg/kg/day
- TD50 (rat, strain Fischer 344, females, in drinking water, site: mammary gland, lesion: adenocarcinoma, dosed 91 weeks, study length 93 weeks): 7.7 mg/kg/day
- TD50 (rat, strain Fischer 344, females, in drinking water, site: mammary gland, lesion: adenoma + fibroadenoma, dosed 91 weeks, study length 93 weeks): 6.22 mg/kg/day
- TD50 (rat, strain Fischer 344, females, in drinking water, site: mammary gland, lesion: fibroadenoma, dosed 91 weeks, study length 93 weeks): 7.05 mg/kg/day
- TD50 (rat, strain Fischer 344, females, in drinking water, site: palate + pharynx + tongue, lesion: squamous-cell carcinoma + squamous-cell papilloma, dosed 91 weeks, study length 93 weeks): 13.8 mg/kg/day
- TD50 (rat, strain Fischer 344, females, in drinking water, site: palate + tongue, lesion: squamous-cell carcinoma, dosed 91 weeks, study length 93 weeks): 113 mg/kg/day
- TD50 (rat, strain Fischer 344, females, in drinking water, site: palate + tongue, lesion: squamous-cell papilloma, dosed 91 weeks, study length 93 weeks): 16.6 mg/kg/day
- TD50 (rat, strain Fischer 344, females, in drinking water, site: palate, lesion: squamous-cell carcinoma + squamous-cell papilloma, dosed 91 weeks, study length 93 weeks): 45.3 mg/kg/day
- TD50 (rat, strain Fischer 344, females, in drinking water, site: palate, lesion: squamous-cell papilloma, dosed 91 weeks, study length 93 weeks): 47.8 mg/kg/day
- TD50 (rat, strain Fischer 344, females, in drinking water, site: pituitary gland, lesion: adenoma + pars distalis adenoma + pars distalis carcinoma, dosed 91 weeks, study length 93 weeks): 9.4 mg/kg/day
- TD50 (rat, strain Fischer 344, females, in drinking water, site: pituitary gland, lesion: adenoma + pars distalis adenoma, dosed 91 weeks, study length 93 weeks): 8.84 mg/kg/day
- TD50 (rat, strain Fischer 344, females, in drinking water, site: skin, lesion: basal-cell adenoma + basal-cell carcinoma, dosed 91 weeks, study length 93 weeks): 10.2 mg/kg/day
- TD50 (rat, strain Fischer 344, females, in drinking water, site: skin, lesion: basal-cell adenoma, dosed 91 weeks, study length 93 weeks): 12.3 mg/kg/day
- TD50 (rat, strain Fischer 344, females, in drinking water, site: tongue, lesion: squamous-cell carcinoma + squamous-cell papilloma, dosed 91 weeks, study length 93 weeks): 19.9 mg/kg/day
- TD50 (rat, strain Fischer 344, females, in drinking water, site: uterus, lesion: endometrial stromal polyp, dosed 91 weeks, study length 93 weeks): 11.6 mg/kg/day
- TD50 (rat, strain Fischer 344, males, in drinking water, site: Zymbal's gland, lesion: adenoma + adenoma, bilateral + carcinoma + carcinoma, bilateral, dosed 88 weeks, study length 92 weeks): 3.02 mg/kg/day
- TD50 (rat, strain Fischer 344, males, in drinking water, site: Zymbal's gland, lesion: adenoma + adenoma, bilateral, dosed 88 weeks, study length 92 weeks): 5.84 mg/kg/day
- TD50 (rat, strain Fischer 344, males, in drinking water, site: Zymbal's gland, lesion: carcinoma + carcinoma, bilateral, dosed 88 weeks, study length 92 weeks): 6.71 mg/kg/day
- TD50 (rat, strain Fischer 344, males, in drinking water, site: adrenal medulla, lesion: pheochromocytoma benign, bilateral + pheochromocytoma, benign, dosed 88 weeks, study length 92 weeks): 2.06 mg/kg/day
- TD50 (rat, strain Fischer 344, males, in drinking water, site: adrenal medulla, lesion: pheochromocytoma benign, bilateral + pheochromocytoma, malignant + pheochromocytoma, benign, dosed 88 weeks, study length 92 weeks): 2.11 mg/kg/day
- TD50 (rat, strain Fischer 344, males, in drinking water, site: all sites + colon, ascending + cecum + colon + colon, descending + duodenum + ileum + jejunum + liver + palate + pharynx + preputial gland + rec, lesion: mesothelioma, benign + mesothelioma, malignant + adenomatous polyp + mucinous cystadenocarcinoma + adenocarcinoma + hepatocellular, dosed 88 weeks, study length 92 weeks): 0.677 mg/kg/day
- TD50 (rat, strain Fischer 344, males, in drinking water, site: all sites, lesion: mesothelioma, benign + mesothelioma, malignant, dosed 88 weeks, study length 92 weeks): 27.4 mg/kg/day
- TD50 (rat, strain Fischer 344, males, in drinking water, site: all sites, lesion: mononuclear-cell leukemia, dosed 88 weeks, study length 92 weeks): 2.5 mg/kg/day
- TD50 (rat, strain Fischer 344, males, in drinking water, site: any site (literature study), lesion: several types, types named in the paper, dosed 88 weeks, study length 92 weeks): 0.565 mg/kg/day
- TD50 (rat, strain Fischer 344, males, in drinking water, site: brain + cerebellum, cerebrum + cerebrum + cerebellum, lesion: astrocytoma, malignant, dosed 88 weeks, study length 92 weeks): 10.9 mg/kg/day
- TD50 (rat, strain Fischer 344, males, in drinking water, site: cecum + colon + colon, descending + rectum, lesion: mucinous cystadenocarcinoma + adenocarcinoma, dosed 88 weeks, study length 92 weeks): 38 mg/kg/day
- TD50 (rat, strain Fischer 344, males, in drinking water, site: colon, ascending + cecum + colon + colon, descending + rectum, lesion: adenomatous polyp + mucinous cystadenocarcinoma + adenocarcinoma, dosed 88 weeks, study length 92 weeks): 9.91 mg/kg/day
- TD50 (rat, strain Fischer 344, males, in drinking water, site: colon, ascending + colon, descending + rectum, lesion: adenomatous polyp, dosed 88 weeks, study length 92 weeks): 13.6 mg/kg/day
- TD50 (rat, strain Fischer 344, males, in drinking water, site: duodenum + ileum + jejunum, lesion: adenocarcinoma + mucinous cystadenocarcinoma, dosed 88 weeks, study length 92 weeks): 8.44 mg/kg/day
- TD50 (rat, strain Fischer 344, males, in drinking water, site: liver, lesion: hepatocellular adenoma + hepatocellular carcinoma + neoplastic nodule, dosed 88 weeks, study length 92 weeks): 7.8 mg/kg/day
- TD50 (rat, strain Fischer 344, males, in drinking water, site: liver, lesion: hepatocellular carcinoma + neoplastic nodule, dosed 88 weeks, study length 92 weeks): 7.8 mg/kg/day
- TD50 (rat, strain Fischer 344, males, in drinking water, site: liver, lesion: neoplastic nodule, dosed 88 weeks, study length 92 weeks): 12.4 mg/kg/day
- TD50 (rat, strain Fischer 344, males, in drinking water, site: palate + pharynx + tongue, lesion: squamous-cell carcinoma + squamous-cell papilloma, dosed 88 weeks, study length 92 weeks): 4.22 mg/kg/day
- TD50 (rat, strain Fischer 344, males, in drinking water, site: palate, lesion: squamous-cell carcinoma + squamous-cell papilloma, dosed 88 weeks, study length 92 weeks): 8.21 mg/kg/day
- TD50 (rat, strain Fischer 344, males, in drinking water, site: palate, lesion: squamous-cell papilloma, dosed 88 weeks, study length 92 weeks): 8.35 mg/kg/day
- TD50 (rat, strain Fischer 344, males, in drinking water, site: pharynx + tongue, lesion: squamous-cell papilloma, dosed 88 weeks, study length 92 weeks): 4.49 mg/kg/day
- TD50 (rat, strain Fischer 344, males, in drinking water, site: preputial gland, lesion: adenoma + adenoma, bilateral + carcinoma + carcinoma, bilateral, dosed 88 weeks, study length 92 weeks): 1.78 mg/kg/day
- TD50 (rat, strain Fischer 344, males, in drinking water, site: preputial gland, lesion: adenoma + adenoma, bilateral, dosed 88 weeks, study length 92 weeks): 3.28 mg/kg/day
- TD50 (rat, strain Fischer 344, males, in drinking water, site: preputial gland, lesion: carcinoma + carcinoma, bilateral, dosed 88 weeks, study length 92 weeks): 4.65 mg/kg/day
- TD50 (rat, strain Fischer 344, males, in drinking water, site: skin, lesion: basal-cell adenoma + basal-cell carcinoma + sebaceous gland carcinoma + sebaceous adenoma, dosed 88 weeks, study length 92 weeks): 0.767 mg/kg/day
- TD50 (rat, strain Fischer 344, males, in drinking water, site: skin, lesion: basal-cell adenoma + basal-cell carcinoma, dosed 88 weeks, study length 92 weeks): 0.77 mg/kg/day
- TD50 (rat, strain Fischer 344, males, in drinking water, site: skin, lesion: basal-cell adenoma + sebaceous adenoma, dosed 88 weeks, study length 92 weeks): 0.785 mg/kg/day
- TD50 (rat, strain Fischer 344, males, in drinking water, site: skin, lesion: basal-cell adenoma, dosed 88 weeks, study length 92 weeks): 0.789 mg/kg/day
- TD50 (rat, strain Fischer 344, males, in drinking water, site: skin, lesion: basal-cell carcinoma + sebaceous gland carcinoma, dosed 88 weeks, study length 92 weeks): 6.5 mg/kg/day
- TD50 (rat, strain Fischer 344, males, in drinking water, site: skin, lesion: basal-cell carcinoma, dosed 88 weeks, study length 92 weeks): 6.55 mg/kg/day
- TD50 (rat, strain Fischer 344, males, in drinking water, site: skin, lesion: keratoacanthoma, dosed 88 weeks, study length 92 weeks): 9.13 mg/kg/day
- TD50 (rat, strain Fischer 344, males, in drinking water, site: skin, lesion: sebaceous gland carcinoma + sebaceous adenoma, dosed 88 weeks, study length 92 weeks): 24.6 mg/kg/day
- TD50 (rat, strain Fischer 344, males, in drinking water, site: skin, lesion: squamous-cell carcinoma + squamous-cell papilloma, dosed 88 weeks, study length 92 weeks): 2.01 mg/kg/day
- TD50 (rat, strain Fischer 344, males, in drinking water, site: skin, lesion: squamous-cell carcinoma, dosed 88 weeks, study length 92 weeks): 2.35 mg/kg/day
- TD50 (rat, strain Fischer 344, males, in drinking water, site: skin, lesion: squamous-cell papilloma, dosed 88 weeks, study length 92 weeks): 6.6 mg/kg/day
- TD50 (rat, strain Fischer 344, males, in drinking water, site: subcutaneous tissue, lesion: fibroma + neurofibroma, dosed 88 weeks, study length 92 weeks): 5.19 mg/kg/day
- TD50 (rat, strain Fischer 344, males, in drinking water, site: subcutaneous tissue, lesion: fibroma, dosed 88 weeks, study length 92 weeks): 13.9 mg/kg/day
- TD50 (rat, strain Fischer 344, males, in drinking water, site: subcutaneous tissue, lesion: fibrosarcoma + fibroma + neurofibroma + sarcoma, dosed 88 weeks, study length 92 weeks): 6.49 mg/kg/day
- TD50 (rat, strain Fischer 344, males, in drinking water, site: subcutaneous tissue, lesion: fibrosarcoma + fibroma, dosed 88 weeks, study length 92 weeks): 13.6 mg/kg/day
- TD50 (rat, strain Fischer 344, males, in drinking water, site: testis, lesion: interstitial-cell adenoma, bilateral + interstitial-cell adenoma, dosed 88 weeks, study length 92 weeks): 0.612 mg/kg/day
- TD50 (rat, strain Fischer 344, males, in drinking water, site: thyroid gland, lesion: c-cell adenoma + c-cell carcinoma, dosed 88 weeks, study length 92 weeks): 4.7 mg/kg/day
- TD50 (rat, strain Fischer 344, males, in drinking water, site: thyroid gland, lesion: c-cell adenoma, dosed 88 weeks, study length 92 weeks): 6.92 mg/kg/day
- TD50 (rat, strain Fischer 344, males, in drinking water, site: tongue, lesion: squamous-cell carcinoma + squamous-cell papilloma, dosed 88 weeks, study length 92 weeks): 8.25 mg/kg/day
- TD50 (rat, strain Fischer 344, males, in drinking water, site: tongue, lesion: squamous-cell papilloma, dosed 88 weeks, study length 92 weeks): 9.16 mg/kg/day
